In patent US10220034B2, “Hepatitis B viral assembly effectors” (Indiana University Research and Technology Corp., priority 2013, dated 2019):

Key:
HBV Cp = assay: Capsid assembly assay (fluorescence quenching); settings: 10 μM compound, control reactions with no drug show 25±5% assembly
AD38 cells = assay: Activity of test compounds on viral production from AD38 cells (qPCR viral load); type: cell-based, HBV; design: key: (+) depicting meets criteria for significant activity; (++) depicting exceeds criteria; settings: 5 days, supernatant qPCR
Procedure: AD38 cells grown in a 175 cm flash with Growth Medium (DMEM/F12 (1:1) (cat#SH30023.01, Hyclone, 1× Pen/step (cat#: 30-002-CL, Mediatech, Inc), 10% FBS (cat#: 101, Tissue Culture Biologics), 250 μg/mL G418 (cat#: 30-234-CR, Mediatech, Inc), 1 μg/mL Tetracycline (cat#: T3325, Teknova)) were detached with 0.25% trypsin. Tetracycline-free treatment medium (15 mL DMEM/F12 (1:1) (cat#SH30023.01, Hyclone, 1× Pen/step (cat#: 30-002-CL, Mediatech, Inc), with 2% FBS, Tet-system approved (cat#: 631106, Clontech) were then added to mix and spun at 1300 rpm for 5 min. Pelleted cells were then re-suspended/washed with 50 mL of 1×PBS 2 times and 10 mL treatment medium one time. AD38 cells were then re-suspended with 10 mL of treatment medium and counted. Wells of a collagen coated 96-well NUNC microtiter plate were seeded at 50,000/well in 180 μL of treatment medium, and 20 μL of either 10% DMSO (Control) or a 10× solution of test compound in 10% DMSO in treatment media was added for as final compound concentration 1, 3, or 10 μM (1.0% final [DMSO]) and plates were incubated for 5 days at 37° C.
Subsequently viral load production was assayed by quantitative PCR of the core sequence. Briefly, 5 μL of clarified supernatant was added to a PCR reaction mixture that contained forward primers HBV-f 5′-[…]-3′, Reverse primers HBV-r 5′-[…]-3′ and Fluorescent TaqMan™ Probes HBV-probe 5′-FAM/[…]/ZEN/[…]/31ABkFQ-3′ in Quanta Biosciences PerfeCTa® qPCR Toughmix®, and was subsequently on an Applied Biosystems VIIA7 in a final volume of 20 μL. The PCR mixture was incubated at 45° C. for 5 minutes, then 95° C. for 10 min, followed by 40 cycles of 10 seconds at 95° C. and 20 seconds at 60° C. Viral load was quantitated against known standards by using ViiA™ 7 Software. Viral load in the supernatant from wells with treated cells were compared against viral load in supernatant from DMSO control wells (≥3 per plate). In Table 4, concentrations of test compound causing reductions in viral load greater than at least 3 standard deviations from the DMSO controls across all plates were considered active, with (+) depicting meets criteria for significant activity, and (++) depicting exceeds criteria.

Structure (SMILES)	% Capsid formation at 24 h (10 μM) (HBV Cp)	reduction in viral load vs DMSO controls (AD38 cells; test concentration 3 μM)	reduction in viral load vs DMSO controls (AD38 cells; test concentration 10 μM)	reduction in viral load vs DMSO controls (AD38 cells; test concentration 1 μM)
Cc1ccc(Nc2cc(C)nc(N3CCN(S(=O)(=O)c4ccc(OC(C)(C)C)cc4)CC3)n2)cc1 [compound 27]	84%	++	++	
Cc1ccc(Nc2cc(C)nc(N3CCN(S(=O)(=O)c4cccc(F)c4)CC3)n2)cc1 [compound 15]	76%	++	++	
Cc1ccc(Nc2cc(C)nc(N3CCN(S(=O)(=O)c4ccc(N)cc4)CC3)n2)cc1 [compound 26]	96%	++	++	
COc1ccc(S(=O)(=O)N2CCN(c3nc(Nc4ccc(C)cc4)cc(C(C)(C)C)n3)CC2)cc1 [compound 31]	87%	++	++	
CC(=O)Nc1ccc(S(=O)(=O)N2CCN(c3nc(C)cc(Nc4ccc(C)cc4)n3)CC2)cc1 [compound 10]	96%	++	++	+
CCOc1ccc(S(=O)(=O)N2CCN(c3nc(C)cc(Nc4ccc(C)cc4)n3)CC2)cc1 [compound 8]	98%	++	++	
